Laboratory results taken from patent US6737383B1, “Herbicidal oxadiazolidines” (priority 1999, dated 2004).

How the values were obtained:
[1] = system: eastern black nightshade; test: Test C postemergence eastern black nightshade; type: in vivo, Solanum ptycanthum; conditions: 0 to 100 scale, 0 no effect, 100 complete control
In short: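 Visual ratings on a 0 to 100 scale, where 0 means no effect and 100 complete control, were made versus untreated controls roughly 14 to 21 days after postemergence treatment. Test compounds were formulated in a non-phytotoxic solvent mixture containing a surfactant.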

[2] = system: johnsongrass; test: Test C postemergence johnsongrass; type: in vivo, Sorghum halepense; conditions: 0 to 100 scale, 0 no effect, 100 complete control
Method: (§1) Compounds evaluated in this test were formulated in a non-phytotoxic solvent mixture which included a surfactant and applied to plants that were grown for various periods of time before treatment (postemergence application). A mixture of sandy loam soil and greenhouse potting mix in a 60:40 ratio was used for the postemergence test.
(§2) Plantings of these crops and weed species were adjusted to produce plants of appropriate size for the postemergence test. All plant species were grown using normal greenhouse practices. Crop and weed species include arrowleaf sida (Sida rhombifolia), barnyardgrass (Echinochloa crus-galli), cocklebur (Xanthium strumarium), common ragweed (Ambrosia elatior), corn (Zea mays), cotton (Gossypium hirsutum), eastern black nightshade (Solanum ptycanthum), fall panicum (Panicum dichotomiflorum), field bindweed (Convolvulus arvensis), giant foxtail (Setaria faberii), hairy beggarticks (Bidens pilosa), ivyleaf morningglory (Ipomoea hederacea), johnsongrass (Sorghum halepense), ladysthumb smartweed (Polygonum persicaria), lambsquarters (Chenopodium album), large crabgrass (Digitaria sanguinalis), purple nutsedge (Cyperus rotundus), redroot pigweed (Amaranthus retroflexus), soybean (Glycine max), surinam grass (Brachiaria decumbens), velvetleaf (Abutilon theophrasti) and wild poinsettia (Euphorbia heterophylla).
(§3) Treated plants and untreated controls were maintained in a greenhouse for approximately 14, to 21 days, after which all treated plants were compared to untreated controls and visually evaluated. Plant response ratings, summarized in Table C, were based upon a 0 to 100 scale where 0 was no effect and 100 was complete control. A dash response (−) means no test result.

[3] = system: velvetleaf; test: Test C postemergence velvetleaf; type: in vivo, Abutilon theophrasti; conditions: 0 to 100 scale, 0 no effect, 100 complete control
Method: as §1, §2, §3

[4] = system: Italian ryegrass; test: Test E Italian ryegrass; type: in vivo, Lolium multiflorum; conditions: Postemergence; for Plant response rating, I. Ryegrass: 0 to 100 scale; for I. Ryegrass plant response rating: Rate 250 g/ha, 0 to 100 scale where 0 is no effect and 100 is complete control
Method: as §1, with “in the 1- to 4-leaf stage” for “grown for various periods of time before treatment”
(§4) Plantings of these crops and weed species were adjusted to produce plants of appropriate size for the postemergence test. All plant species were grown using normal greenhouse practices. Crop and weed species include annual bluegrass (Poa annua), blackgrass (Alopecurus myosuroides), black nightshade (Solanum nigra), chickweed (Stellaria media), common poppy (Papaver rhoeas), deadnettle (Lamium amplexicaule), downy brome (Bromus tectorum), field violet (Viola arvensis), galium (Galium aparine), green foxtail (Setaria viridis), Italian ryegrass (Lolium multiflorum), jointed goatgrass (Aegilops cylindrica), kochia (Kochia scoparia), lambsquarters (Chenopodium album), littleseed canarygrass (Phalaris minor), rape (Brassica napus), redroot pigweed (Amaranthus retroflexus), Russian thistle (Salsola kali), scentless chamomile (Matricaria inodora), spring barley (Hordeum vulgare), sugar beet (Beta vulgaris), sunflower (Helianthus annuus), ivyleaf speedwell (Veronica hederaefolia), spring wheat (Triticum aestivum), winter wheat (Triticum aestivum), wild buckwheat (Polygonum convolvulus), wild mustard (Sinapis arvensis), wild oat (Avena fatua), windgrass (Apera spica-venti) and winter barley (Hordeum vulgare).
(§5) Treated plants and untreated controls were maintained in a greenhouse for approximately 21 to 28 days, after which all treated plants were compared to untreated controls and visually evaluated. […] A dash response (-) means no test result.

[5] = system: lambsquarters; test: Test E lambsquarters; type: in vivo, Chenopodium album; conditions: Postemergence; for Plant response rating Lambsquarters: 0 to 100 scale; for Lambsquarters plant response rating: Rate 250 g/ha, 0 to 100 scale where 0 is no effect and 100 is complete control
Method: as §1, with “in the 1- to 4-leaf stage” for “grown for various periods of time before treatment”
as §4, §5

[6] = system: rape; test: Test E rape; type: in vivo, Brassica napus; conditions: Postemergence; for Plant response rating, Rape: 0 to 100 scale; for Rape plant response rating: Rate 250 g/ha, 0 to 100 scale where 0 is no effect and 100 is complete control
In short: (§6)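 For postemergence, sowings are timed so plants reach the 1- to 4-leaf stage at spraying. Test compound is applied in a surfactant-containing solvent mixture that is non-phytotoxic. Response is judged by eye against untreated controls after approximately 21 to 28 days.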

[7] = system: redroot pigweed; test: Test E redroot pigweed; type: in vivo, Amaranthus retroflexus; conditions: Postemergence; for Plant response rating, Redroot pigweed: 0 to 100 scale; for Redroot pigweed plant response rating: Rate 250 g/ha, 0 to 100 scale where 0 is no effect and 100 is complete control
In short: as §6

[8] = system: sugar beet; test: Test E sugar beet; type: in vivo, Beta vulgaris; conditions: Postemergence; for Plant response rating, Sugar beet: 0 to 100 scale; for Sugar beet plant response rating: Rate 250 g/ha, 0 to 100 scale where 0 is no effect and 100 is complete control
Method: as §1, with “in the 1- to 4-leaf stage” for “grown for various periods of time before treatment”
as §4, §5

[9] = system: guineagrass; test: Test D guineagrass; type: in vivo, Panicum maximum; conditions: Postemergence, 0 to 100 scale
[10] = system: itchgrass; test: Test D itchgrass; type: in vivo, Rottboellia exaltata; conditions: Postemergence, 0 to 100 scale
[11] = system: tall mallow; test: Test D tall mallow; type: in vivo, Malva sylvestris; conditions: Postemergence, 0 to 100 scale
[12] = system: black nightshade; test: Test E black nightshade; type: in vivo, Solanum nigra; conditions: Preemergence; for Blk nightshade plant response rating (0 to 100 scale): Rate 250 g/ha
[13] = system: redroot pigweed; test: Test E redroot pigweed; type: in vivo, Amaranthus retroflexus; conditions: Preemergence; for Redroot pigweed plant response rating (0 to 100 scale): Rate 250 g/ha
[14] = system: Russian thistle; test: Test E Russian thistle; type: in vivo, Salsola kali; conditions: Preemergence; for Russian thistle plant response rating (0 to 100 scale): Rate 250 g/ha
[15] = system: sunflower; test: Test E sunflower; type: in vivo, Helianthus annuus; conditions: Preemergence; for Sunflower plant response rating (0 to 100 scale): Rate 250 g/ha
[16] = system: Green foxtail; test: Test D green foxtail; type: in vivo; conditions: Postemergence, 0 to 100 scale, 0 no injury, 100 complete control
[17] = Rate 125 g/ha, 0 is no effect, 100 is complete control
[18] = Rate 500 g/ha, 0 is no effect, 100 is complete control
[19] = Rate 16 g/ha, 0 no injury, 100 complete control
[20] = Rate 32 g/ha, 0 no injury, 100 complete control
[21] = Rate 64 g/ha, 0 no injury, 100 complete control
[22] = Rate 125 g/ha, 0 no injury, 100 complete control
[23] = Rate 125 g/ha, 0 to 100 scale (0 no effect, 100 complete control)
[24] = Rate 500 g/ha, 0 to 100 scale where 0 is no effect and 100 is complete control

## CC(C)N(C(=O)n1oc(=O)n(C2CC2)c1=O)c1ccc(F)cc1 [Compound 242]
[1]; Rate 140 g/ha
  Plant response rating E. blacknightsh: 0
[1]; Rate 280 g/ha
  Plant response rating E. blacknightsh: 40
[1]; Rate 560 g/ha
  Plant response rating E. blacknightsh: 60
[1]; Rate 1120 g/ha
  Plant response rating E. blacknightsh: 90
[2]; Rate 140 g/ha
  Plant response rating, Johnsongrass: 45
[2]; Rate 280 g/ha
  Plant response rating, Johnsongrass: 45
[2]; Rate 560 g/ha
  Plant response rating, Johnsongrass: 60
[2]; Rate 1120 g/ha
  Plant response rating, Johnsongrass: 90
[3]; Rate 140 g/ha
  Plant response rating, Velvetleaf: 0
[3]; Rate 280 g/ha
  Plant response rating, Velvetleaf: 0
[3]; Rate 560 g/ha
  Plant response rating, Velvetleaf: 40
[3]; Rate 1120 g/ha
  Plant response rating, Velvetleaf: 60
[4]; Rate 62 g/ha
  Plant response rating, I. Ryegrass: 50
[4]; [17]
  Plant response rating, I. Ryegrass: 0
[4]
  I. Ryegrass plant response rating: 70
[4]; [18]
  Plant response rating, I. Ryegrass: 60
[5]; Rate 62 g/ha
  Plant response rating Lambsquarters: 10
[5]; [17]
  Plant response rating Lambsquarters: 0
[5]
  Lambsquarters plant response rating: 0
[5]; [18]
  Plant response rating Lambsquarters: 0
[6]; Rate 62 g/ha
  Plant response rating, Rape: 20
[6]; [17]
  Plant response rating, Rape: 10
[6]
  Rape plant response rating: 0
[6]; [18]
  Plant response rating, Rape: 50
[7]; Rate 62 g/ha
  Plant response rating, Redroot pigweed: 0
[7]; [17]
  Plant response rating, Redroot pigweed: 0
[7]
  Redroot pigweed plant response rating: 0
[7]; [18]
  Plant response rating, Redroot pigweed: 40
[8]; Rate 62 g/ha
  Plant response rating, Sugar beet: 50
[8]; [17]
  Plant response rating, Sugar beet: 50
[8]
  Sugar beet plant response rating: 40
[8]; [18]
  Plant response rating, Sugar beet: 30
[9]; [19]
  Plant response rating, Guineagrass: 0
[9]; [20]
  Plant response rating, Guineagrass: 100
[9]; [21]
  Guineagrass plant response rating: 80
  Plant response rating, Guineagrass: 0
[9]; [22]
  Plant response rating, Guineagrass: 100
[9]; Rate 250 g/ha
  Plant response rating, Guineagrass: 100
[10]; [19]
  Plant response rating, Itchgrass: 0
[10]; [20]
  Plant response rating, Itchgrass: 0
[10]; [21]
  Plant response rating, Itchgrass: 40
[10]; [22]
  Plant response rating, Itchgrass: 80
[10]; Rate 250 g/ha
  Plant response rating, Itchgrass: 100
[11]; [19]
  Plant response rating, Tall Mallow: 0
[11]; [20]
  Plant response rating, Tall Mallow: 0
[11]; [21]
  Tall Mallow plant response rating: 50
[11]; [22]
  Tall Mallow plant response rating: 90
[11]; Rate 250 g/ha
  Plant response rating, Tall Mallow: 100
[12]; [23]
  Plant response rating, Blk nightshade: 70
[12]
  Blk nightshade plant response rating (0 to 100 scale): 95
[12]; [24]
  Plant response rating, Blk nightshade: 95
[13]; [23]
  Plant response rating, Redroot pigweed: 90
[13]
  Redroot pigweed plant response rating (0 to 100 scale): 100
[13]; [24]
  Plant response rating, Redroot pigweed: 100
[14]; [23]
  Plant response rating, Russian thistle: 20
[14]
  Russian thistle plant response rating (0 to 100 scale): 30
[14]; [24]
  Plant response rating, Russian thistle: 50
[15]; [23]
  Plant response rating, Sunflower: 55
[15]
  Sunflower plant response rating (0 to 100 scale): 70
[15]; [24]
  Plant response rating, Sunflower: 60
[16]; Rate 64 g/ha
  Plant response rating, Green foxtail: 100
[16]; Rate 125 g/ha
  Plant response rating, Green foxtail: 100

## CC(C)N(C(=O)n1oc(=O)n(C)c1=O)c1ccc(F)cc1 [Compound 138]
[1]; Rate 140 g/ha
  Plant response rating E. blacknightsh: 0
[1]; Rate 280 g/ha
  Plant response rating E. blacknightsh: 10
[1]; Rate 560 g/ha
  Plant response rating E. blacknightsh: 70
[1]; Rate 1120 g/ha
  Plant response rating E. blacknightsh: 70
[2]; Rate 140 g/ha
  Plant response rating, Johnsongrass: 0
[2]; Rate 280 g/ha
  Plant response rating, Johnsongrass: 20
[2]; Rate 560 g/ha
  Plant response rating, Johnsongrass: 60
[2]; Rate 1120 g/ha
  Plant response rating, Johnsongrass: 90
[3]; Rate 140 g/ha
  Plant response rating, Velvetleaf: 0
[3]; Rate 280 g/ha
  Plant response rating, Velvetleaf: 60
[3]; Rate 560 g/ha
  Plant response rating, Velvetleaf: 70
[3]; Rate 1120 g/ha
  Plant response rating, Velvetleaf: 80
[4]; Rate 125 g/ha
  Plant response rating, I. Ryegrass: 0
[4]
  I. Ryegrass plant response rating: 0
[5]; Rate 125 g/ha
  Plant response rating Lambsquarters: 10
[5]
  Lambsquarters plant response rating: 30
[6]; Rate 125 g/ha
  Plant response rating, Rape: 10
[6]
  Rape plant response rating: 0
[7]; Rate 125 g/ha
  Plant response rating, Redroot pigweed: 20
[7]
  Redroot pigweed plant response rating: 10
[8]; Rate 125 g/ha
  Plant response rating, Sugar beet: 30
[8]
  Sugar beet plant response rating: 10
[12]; [23]
  Plant response rating, Blk nightshade: 85
[12]
  Blk nightshade plant response rating (0 to 100 scale): 95
[13]; [23]
  Plant response rating, Redroot pigweed: 90
[13]
  Redroot pigweed plant response rating (0 to 100 scale): 90
[14]; [23]
  Plant response rating, Russian thistle: 10
[14]
  Russian thistle plant response rating (0 to 100 scale): 20
[15]; [23]
  Plant response rating, Sunflower: 55
[15]
  Sunflower plant response rating (0 to 100 scale): 60

## CC(C)N(C(=O)n1oc(=O)n(C2CCCCCC2)c1=O)c1ccc(F)cc1F [Compound 342]
[9]; [19]
  Plant response rating, Guineagrass: 0
[9]; [20]
  Plant response rating, Guineagrass: 0
[9]; [21]
  Guineagrass plant response rating: 0
  Plant response rating, Guineagrass: 80
[9]; [22]
  Plant response rating, Guineagrass: 50
[9]; Rate 250 g/ha
  Plant response rating, Guineagrass: 90
[10]; [19]
  Plant response rating, Itchgrass: 0
[10]; [20]
  Plant response rating, Itchgrass: 0
[10]; [21]
  Plant response rating, Itchgrass: 0
[10]; [22]
  Plant response rating, Itchgrass: 0
[10]; Rate 250 g/ha
  Plant response rating, Itchgrass: 0
[11]; [19]
  Plant response rating, Tall Mallow: 0
[11]; [20]
  Plant response rating, Tall Mallow: 0
[11]; [21]
  Tall Mallow plant response rating: 0
[11]; [22]
  Tall Mallow plant response rating: 0
[11]; Rate 250 g/ha
  Plant response rating, Tall Mallow: 10
[16]; Rate 64 g/ha
  Plant response rating, Green foxtail: 0
[16]; Rate 125 g/ha
  Plant response rating, Green foxtail: 60
